Measurements taken from patent publication US5795858A, “Treatment or prevention of Crohn's disease and/or ulcerative colitis” (Peptide Technology Limited, priority 1993, dated 1998).
“Also recorded” adds a separate entry of the source.

Tested on: TNBS colitis
Assay: TNBS colitis in rats, 2 week series, once daily s.c. treatment
Format: in vivo, Male Sprague-Dawley rats
Protocol: Treatment was continued on a once daily basis for the following 14 or 28 days. On day 14 (2 week series) or 28 (4 week series), animals were weighed and anaesthetised with pentobarbital. A cardiac puncture was performed to obtain a sample of peripheral blood for the determination of total white blood cell count (WBC) using a coulter counter, and differential count. A midline laparotomy was then performed and the colon exposed and excised. The colon was then opened longitudinally and rinsed clear of […] material. The severity of colonic mucosal injury, diarrhoea, and adhesions was then scored by an observer unaware of the treatment group of the animals using the attached criteria. The length (in cm) and weight of each colonic segment was then determined to allow the determination of the colonic weight/length ratio (as an index of intramural edema and/or fibrosis). Samples of tissue were then taken for biochemical determination of tissue myeloperoxidase (MPO) activity, as an index of granulocyte accumulation using standard biochemical techniques. Samples of tissue were also taken and fixed for subsequent processing for histopathological examination. Differences between the different treatment groups were analysed using either one way analysis of variance (body weight, WBC counts, colonic weight/length ratio, […] activity) or the non-parametric equivalent Kruskall-Wallis test (semiquantitive grading of severity of mucosal injury, adhesions, or diarrhoea). Significance of differences between individual pairs of treatment groups were then assessed using post hoc Tukey's test for parametric data and Dunn's multiple comparison test for non-parametric data. […]

Compound	total WBC counts (5 mg/kg once daily s.c. for 2 weeks, vs TNBS colitis animals receiving vehicle, p 0.06-0.07, FIG. 1)	severity of colonic adhesions (5 mg/kg once daily s.c., 2 weeks, FIG. 4)	TNBS colitis-associated changes in body weight (weight gain) (5 mg/kg once daily s.c., 2 weeks, initial vs final body weight, FIG. 2)	colonic weight/length ratio (index of colonic edema) (5 mg/kg once daily s.c., 2 weeks, pattern compared with adhesions (no significant reduction, trend towards reduction), FIG. 5)	colonic myeloperoxidase activity (index of granulocyte accumulation) (5 mg/kg once daily s.c., 2 weeks, pattern compared with adhesions (no significant reduction, trend towards reduction), FIG. 7)	TNBS colitis-associated changes in body weight (weight gain) (rat, in vivo)	colonic myeloperoxidase activity (index of granulocyte accumulation) (rat, in vivo)	colonic weight/length ratio (index of colonic edema) (rat, in vivo)	reducing failure to thrive/lack of weight gain (rat, in vivo)	reducing the severity of the leukocytosis (rat, in vivo)	severity of colonic adhesions (rat, in vivo)	severity of mucosal injury (semiquantitative grading scale) (rat, in vivo)	total WBC counts (rat, in vivo)
C[C@]12C=CC(=O)C=C1CC[C@@H]1[C@@H]2C(=O)C[C@@]2(C)[C@H]1CC[C@]2(O)C(=O)CO [prednisone, reference compound]	reductions in total WBC counts	general trend towards reduction of adhesions	increased weight gains in animals with colitis, with this becoming significant (p<0.05)	Virtually identical patterns	Virtually identical patterns	–	–	–	–	–	–	–	–
D--Ala--Ser--Thr--Thr--Thr--Asn--Tyr--Thr--NH2 [Peptide T]	–	–	–	–	–	increased weight gains in animals with colitis, with this becoming significant (p<0.05); also recorded: approaching significance (p values of 0.06 to 0.08)	Virtually identical patterns	Virtually identical patterns	comparable to prednisone	comparable to prednisone	general trend towards reduction of adhesions	may have marginally reduced the severity of mucosal injury	reductions in total WBC counts
